“And” between values parts separate entries of the source, which are not always exact repeats. Equal values may be shown once.
Biological target: Metabotropic glutamate receptor 1 (Rattus norvegicus, UniProt P23385)
Sequence (P23385 whole entry): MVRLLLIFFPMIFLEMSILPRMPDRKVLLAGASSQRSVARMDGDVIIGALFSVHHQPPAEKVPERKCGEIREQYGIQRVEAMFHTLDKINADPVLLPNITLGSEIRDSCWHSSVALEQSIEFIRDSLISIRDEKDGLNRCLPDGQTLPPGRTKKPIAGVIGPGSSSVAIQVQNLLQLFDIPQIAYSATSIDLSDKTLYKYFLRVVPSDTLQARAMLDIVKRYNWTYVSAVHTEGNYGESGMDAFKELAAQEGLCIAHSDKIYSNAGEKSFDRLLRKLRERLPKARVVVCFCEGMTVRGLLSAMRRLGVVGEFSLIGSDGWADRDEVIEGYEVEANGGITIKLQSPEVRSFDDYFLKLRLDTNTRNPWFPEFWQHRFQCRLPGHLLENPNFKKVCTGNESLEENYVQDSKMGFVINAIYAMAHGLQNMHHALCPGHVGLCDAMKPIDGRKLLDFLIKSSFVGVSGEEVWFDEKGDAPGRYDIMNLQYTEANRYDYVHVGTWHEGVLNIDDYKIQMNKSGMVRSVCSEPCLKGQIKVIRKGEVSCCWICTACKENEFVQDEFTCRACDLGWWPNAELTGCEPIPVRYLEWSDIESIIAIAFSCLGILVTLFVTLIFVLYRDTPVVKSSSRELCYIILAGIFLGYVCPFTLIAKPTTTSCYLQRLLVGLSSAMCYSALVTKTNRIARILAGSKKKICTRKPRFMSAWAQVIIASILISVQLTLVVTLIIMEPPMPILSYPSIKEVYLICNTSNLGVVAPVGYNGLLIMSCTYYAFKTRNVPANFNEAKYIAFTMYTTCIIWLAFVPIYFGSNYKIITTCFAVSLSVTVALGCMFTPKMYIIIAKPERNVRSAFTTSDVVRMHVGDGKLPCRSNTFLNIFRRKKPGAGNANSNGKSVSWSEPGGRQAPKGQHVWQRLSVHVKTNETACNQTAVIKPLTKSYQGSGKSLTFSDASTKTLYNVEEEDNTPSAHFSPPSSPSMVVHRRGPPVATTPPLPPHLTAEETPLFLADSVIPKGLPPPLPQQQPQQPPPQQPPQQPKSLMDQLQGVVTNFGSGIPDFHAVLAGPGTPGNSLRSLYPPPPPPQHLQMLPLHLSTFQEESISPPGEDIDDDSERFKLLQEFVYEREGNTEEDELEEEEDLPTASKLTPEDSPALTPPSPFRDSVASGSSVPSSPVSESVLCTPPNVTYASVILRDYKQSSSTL

Row | Structure (SMILES) | Ki
1 | O=C(Cc1ccccc1)c1ccc2nc3c(cc2c1)CCCO3 | 1000 nM
2 | N[C@H](C(=O)O)c1cc(O)cc(O)c1 [amino(3,5-dihydroxyphenyl)acetic acid] | > 10000 nM
3 | CCOC(=O)C12CC1C(N=O)c1ccccc1O2 (stereo not drawn) [CAS_5126051] | 1000 nM and 4900 nM
